Literature values as cited in US10695439B2, “Pyrrolobenzodiazepine conjugates” (Medimmune Limited, priority 2016, dated 2020).

How the values were obtained:
[1] = relative to SG2057, Hartley et al 2012
[2] = system: human tumour xenograft models; conditions: quoted from 2014 REF impact study
human tumour cell lines = conditions: quoted from 2014 REF impact study

Compound | cytotoxicity, times less cytotoxic than SG2057 [1] | activity in human tumour xenograft models [2] | activity against a range of human tumour cell lines (human tumour cell lines)
C=C1C[C@H]2C=Nc3cc(OCCCOc4cc5c(cc4OC)C(=O)N4CC(=C)C[C@H]4C=N5)c(OC)cc3C(=O)N2C1 [SG2000] | at least 10 times | – | –
COc1ccc(C2=CN3C(=O)c4cc(OC)c(OCCCOc5cc6c(cc5OC)C(=O)N5C=C(c7ccc(OC)cc7)C[C@H]5C=N6)cc4N=C[C@@H]3C2)cc1 [SG2202] | – | curative activity | picomolar/sub-picomolar activity
